Results on 18 compounds are retold here after patent publication US8999986B2, “Pyrrolo [2,3—D] pyrazin—7—ylpyrimidine compounds” (Merck Patent GmbH, priority 2009, dated 2015).

The structures appear in SMILES notation. Like-named read-outs stand apart in the source and are kept apart here.

Experiment [1] concerns phospho-T308-PKB in PC3 cells. Nature of the experiment: Cellular testing of PDK1 kinase inhibitors in PC3 cells (Luminex, phospho-T308-PKB). It is filed as cell-based. To be noted: Homo sapiens. The method, then:
Method for the Cellular Testing of PDK1 Kinase Inhibitors in PC3 Cells.
The cellular assay for the determination of the PDK1 kinase activity is carried out as a Luminex assay in the 96-well format. PC3 cells are sown at 20,000 cells per well in 100 μl of medium (45% of […]/45% of Ham's F12/10% of FCS) and incubated on the following day for 30 min with a serial dilution of the test substance (7 concentrations) under serum-free conditions. The cells are subsequently lysed using 90 μl of lysis buffer (20 mM tris/HCl pH 8.0, 150 mM NaCl, 1% of NP40, 10% of glycerol, 1% of phosphatase inhibitor I, 1% of phosphatase inhibitor II, 0.1% of protease inhibitor cocktail 111, 0.01% of benzonase) per well, and the lysates are separated off from insoluble cell constituents by means of centrifugation through a 96-well filter plate (0.65 μm). The lysates are incubated overnight at 4° C. with shaking with Luminex beads to which an anti-total PKB antibody is coupled. The detection is carried out on the following day by addition of a phospho-T308-PKB antibody and a species-specific […] secondary antibody. The detection of phospho-T308-PKB is carried out by measurement in a Luminex100 instrument by determination of 100 events per cavity in a measurement time of 60 sec. As pharmacological blank, the signals obtained from cells which have been treated with 10 μM staurosporin are subtracted from all other batches. The control value used for maximum phosphorylation of PKB on T308 are the signals from cells which have only been treated with the solvent (0.3% of DMSO). The values of the batches treated with test substance are calculated therefrom as percentage of control, and IC50 values are determined by means of RS1.

The next experiment concerns the target T1, PDK1 (Homo sapiens, UniProt O15530).
T1 construct: His6 (N)
T1 sequence (O15530 51-556 limits assumed): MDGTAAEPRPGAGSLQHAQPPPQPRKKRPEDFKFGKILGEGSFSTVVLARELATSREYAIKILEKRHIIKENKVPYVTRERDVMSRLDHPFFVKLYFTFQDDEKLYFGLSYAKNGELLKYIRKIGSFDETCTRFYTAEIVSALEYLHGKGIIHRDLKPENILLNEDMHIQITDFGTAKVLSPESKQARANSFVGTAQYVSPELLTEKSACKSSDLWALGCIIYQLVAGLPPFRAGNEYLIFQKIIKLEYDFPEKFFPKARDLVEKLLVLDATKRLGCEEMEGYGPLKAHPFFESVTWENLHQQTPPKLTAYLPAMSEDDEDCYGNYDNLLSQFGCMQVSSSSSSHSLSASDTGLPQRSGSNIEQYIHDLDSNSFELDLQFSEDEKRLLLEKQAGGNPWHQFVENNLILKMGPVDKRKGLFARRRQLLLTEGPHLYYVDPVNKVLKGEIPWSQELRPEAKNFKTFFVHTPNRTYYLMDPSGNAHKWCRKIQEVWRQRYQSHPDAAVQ
Nature of the experiment: Test for the inhibition of PDK1 (flashplate, 33P-ATP). It counts as biochemical. To be noted: His6-PDK1(1-50) 3.4 nM, 4 μM ATP, 30° C., 60 min. The method, then:
The experimental batches are carried out in a flashplate system with 384 wells/microtitration plate.
In each case, the PDK1 sample His6-PDK1(1-50)(3.4 nM), the PDK1 substrate biotin-bA-bA-[…] (400 nM), 4 μM ATP (with 0.2 μCi of ^33P-ATP/well) and the test substance in 50 μl of conventional experimental solution per well are incubated at 30° C. for 60 min. The test substances are employed in corresponding concentrations (if desired in a dilution series). The control is carried out without test substance. The reaction is stopped using standard methods and washed. The activity of the kinase is measured via the incorporated radioactivity in top count. In order to determine the non-specific kinase reaction (blank value), the experimental batches are carried out in the presence of 100 nM staurosporin.
The radioactivity (decompositions per minute) of the blank value (no use of test substance in the presence of staurosporin) is subtracted from all other radioactivity values. The controls (kinase activity without test substance) are set equal to 100 percent and all other radioactivity values (after subtracting the blank value) are expressed set in relation thereto (for example in % of the control).
[formula] IC50 values (50% inhibition) are determined with the aid of statistics pro-grammes, such as, for example, RS1.

Where [2] appears, read: PC-3, cellular assay, cell line not named, read-out: IC50 [cell].

As for `Cn1cc(-c2cnc3[nH]cc(-c4cc([C@@](C)(O)c5ccccc5F)nc(N)n4)c3n2)cn1` (single isomer, unassigned) [A8], the IC50 in experiment [1] (setting [2]) stood at 0.57 µM; against PDK1, 0.043 µM.

On to `Cn1cc(-c2cnc3[nH]cc(-c4cc([C@](C)(O)c5ccccc5F)nc(N)n4)c3n2)cn1` (single isomer, unassigned) [A9], for which the results for the IC50 (in experiment [1] (setting [2]); against PDK1) were 0.15 µM and 0.047 µM, respectively.

As for `CC[C@](O)(c1cccc(F)c1)c1cc(-c2c[nH]c3ncc(-c4cnn(C)c4)nc23)nc(N)n1` (single isomer, unassigned) [A29], the IC50 in experiment [1] (setting [2]) is 0.0022 µM; against PDK1 it was 0.09 µM.

As for `CC[C@@](O)(c1cccc(F)c1)c1cc(-c2c[nH]c3ncc(-c4cnn(C)c4)nc23)nc(N)n1` (single isomer, unassigned) [A30], the concentration for half-maximal inhibition (IC50) in experiment [1] (setting [2]) was determined as 0.021 µM; against PDK1 it was 0.018 µM.

Turning to `CC[C@@](O)(c1cc(-c2c[nH]c3ncc(-c4cnn(C)c4)nc23)nc(N)n1)c1ccccc1F` (single isomer, unassigned) [A31], the IC50 in experiment [1] (setting [2]) was 0.0048 µM; at PDK1 it was 0.024 µM.

On to `CC[C@](O)(c1cc(-c2c[nH]c3ncc(-c4cnn(C)c4)nc23)nc(N)n1)c1ccccc1F` (single isomer, unassigned) [A32], for which the half-maximal inhibitory concentration (IC50) came out at 0.0029 µM in experiment [1] (setting [2]) and 0.095 µM on PDK1.

As to `COCOC(C)(c1cccc(F)c1)c1cc(-c2c[nH]c3ncc(-c4cnn(C)c4)nc23)nc(N)n1` (stereo not drawn) [A2, 4-[1-(3-fluorophenyl)-1-methoxymethoxyethyl]-6-[2-(1-methyl-1H-pyrazol-4-yl)-5H-pyrrolo[2,3-b]pyrazin-7-yl]pyrimidin-2-ylamine], the half-inhibitory concentration (IC50) in experiment [1] (PC-3, 0.5 h, PC3 cells, 30 min with test substance, serum-free, read-out: IC50 [P-PKB T308]) was 0.81 µM; at PDK1, 0.12 µM.

`Cn1cc(-c2cnc3[nH]cc(-c4cc(C(C)(O)c5cccc(F)c5)nc(N)n4)c3n2)cn1` (stereo not drawn) [A3, 1-{2-amino-6-[2-(1-methyl-1H-pyrazol-4-yl)-5H-pyrrolo[2,3-b]pyrazin-7-yl]-pyrimidin-4-yl}-1-(3-fluorophenyl)ethanol]: the IC50 turned out to be 0.53 µM in experiment [1] (setting [2]) and 0.071 µM on PDK1.

As for `Cn1cc(-c2cnc3[nH]cc(-c4cc(C(C)(O)c5ccccc5)nc(N)n4)c3n2)cn1` (stereo not drawn) [A4, 1-{2-Amino-6-[2-(1-methyl-1H-pyrazol-4-yl)-5H-pyrrolo[2,3-b]pyrazin-7-yl]-pyrimidin-4-yl}-1-phenylethanol], the figures for the IC50 (in experiment [1] (setting [2]); against PDK1) were 0.57 µM and 0.055 µM, respectively.

As to `COCOC(C)(c1ccccc1)c1cc(-c2c[nH]c3ncc(-c4cnn(C)c4)nc23)nc(N)n1` (stereo not drawn) [A5, 4-(1-Methoxymethoxy-1-phenylethyl)-6-[2-(1-methyl-1H-pyrazol-4-yl)-5H-pyrrolo[2,3-b]pyrazin-7-yl]pyrimidin-2-ylamine], the IC50 in experiment [1] (setting [2]) stood at 0.42 µM; at PDK1, 0.09 µM.

Turning to `Cn1cc(-c2cnc3[nH]cc(-c4cc(C(C)(O)c5ccccc5F)nc(N)n4)c3n2)cn1` (stereo not drawn) [A6, 1-{2-Amino-6-[2-(1-methyl-1H-pyrazol-4-yl)-5H-pyrrolo[2,3-b]pyrazin-7-yl]-pyrimidin-4-yl}-1-(2-fluorophenyl)ethanol], the IC50 in experiment [1] (setting [2]) amounted to 0.19 µM; against PDK1, 0.031 µM.

In the case of `COCOC(C)(c1cc(-c2c[nH]c3ncc(-c4cnn(C)c4)nc23)nc(N)n1)c1ccccc1F` (stereo not drawn) [A7, 4-[1-(2-Fluorophenyl)-1-methoxymethoxyethyl]-6-[2-(1-methyl-1H-pyrazol-4-yl)-5H-pyrrolo[2,3-b]pyrazin-7-yl]pyrimidin-2-ylamine], the 50% inhibitory concentration (IC50) in experiment [1] (setting [2]) turned out to be 0.26 µM; on PDK1, 0.077 µM.

`CCC(O)(c1cc(-c2c[nH]c3ncc(-c4cnn(C)c4)nc23)nc(N)n1)c1ccccc1F` (stereo not drawn) [A24, 1-{2-Amino-6-[2-(1-methyl-1H-pyrazol-4-yl)-5H-pyrrolo[2,3-b]pyrazin-7-yl]-pyrimidin-4-yl}-1-(2-fluorophenyl)propan-1-ol]: the half-inhibitory concentration (IC50) came out at 0.092 µM in experiment [1] (setting [2]) and 0.054 µM against PDK1.

`CCC(O)(c1cccc(F)c1)c1cc(-c2c[nH]c3ncc(-c4cnn(C)c4)nc23)nc(N)n1` (stereo not drawn) [A25, 1-{2-Amino-6-[2-(1-methyl-1H-pyrazol-4-yl)-5H-pyrrolo[2,3-b]pyrazin-7-yl]-pyrimidin-4-yl}-1-(3-fluorophenyl)propan-1-ol]: the values for the IC50 (in experiment [1] (setting [2]); against PDK1) were 0.11 µM and 0.036 µM, respectively.

With `CCC(O)(c1cc(-c2c[nH]c3ncc(-c4cnn(C)c4)nc23)nc(N)n1)c1ccncc1F` (stereo not drawn) [A26, 1-{2-Amino-6-[2-(1-methyl-1H-pyrazol-4-yl)-5H-pyrrolo[2,3-b]pyrazin-7-yl]-pyrimidin-4-yl}-1-(3-fluoropyridin-4-yl)propan-1-ol], the 50% inhibitory concentration (IC50) in experiment [1] (setting [2]) was determined as 0.58 µM; at PDK1, 0.044 µM.

Regarding `CCC(OCOC)(c1cc(-c2c[nH]c3ncc(-c4cnn(C)c4)nc23)nc(N)n1)c1ccncc1F` (stereo not drawn) [A27, 4-[1-(3-Fluoropyridin-4-yl)-1-methoxymethoxypropyl]-6-[2-(1-methyl-1H-pyrazol-4-yl)-5H-pyrrolo[2,3-b]pyrazin-7-yl]pyrimidin-2-ylamine], the 50% inhibitory concentration (IC50) in experiment [1] (setting [2]) came to 0.6 µM; against PDK1 it was 0.09 µM.

Regarding `CCC(O)(c1ccncc1)c1cc(-c2c[nH]c3ncc(-c4cnn(C)c4)nc23)nc(N)n1` (stereo not drawn) [A28, 1-{2-Amino-6-[2-(1-methyl-1H-pyrazol-4-yl)-5H-pyrrolo[2,3-b]pyrazin-7-yl]-pyrimidin-4-yl}-1-pyridin-4-ylpropan-1-ol], the results for the half-inhibitory concentration (IC50) (in experiment [1] (setting [2]); on PDK1) were 0.16 µM and 0.017 µM, respectively.

With `CC(C)n1cc(-c2cnc3[nH]cc(-c4cc(C(C)(O)c5ccccc5F)nc(N)n4)c3n2)cn1` (stereo not drawn) [A33, 1-{2-Amino-6-[2-(1-isopropyl-1H-pyrazol-4-yl)-5H-pyrrolo[2,3-b]pyrazin-7-yl]-pyrimidin-4-yl}-1-(2-fluorophenyl)ethanol], the results for the IC50 (in experiment [1] (setting [2]); against PDK1) were 0.25 µM and 0.35 µM, respectively.
